Tests used:
Format in all cases: cell-based
human TLR7 = molecular target: T1, human TLR7 (Homo sapiens, UniProt Q9NYK1); assay: TLR ligand screening: NF-κB SEAP reporter in HEK293 cells expressing TLR7; details: one concentration: NTR001 10 uM, Inosine 100 uM, triplicate, FIG. 2
T1 construct: expressed in transfected cells; host or cells: HEK293
T1 sequence (Q9NYK1 27-1049): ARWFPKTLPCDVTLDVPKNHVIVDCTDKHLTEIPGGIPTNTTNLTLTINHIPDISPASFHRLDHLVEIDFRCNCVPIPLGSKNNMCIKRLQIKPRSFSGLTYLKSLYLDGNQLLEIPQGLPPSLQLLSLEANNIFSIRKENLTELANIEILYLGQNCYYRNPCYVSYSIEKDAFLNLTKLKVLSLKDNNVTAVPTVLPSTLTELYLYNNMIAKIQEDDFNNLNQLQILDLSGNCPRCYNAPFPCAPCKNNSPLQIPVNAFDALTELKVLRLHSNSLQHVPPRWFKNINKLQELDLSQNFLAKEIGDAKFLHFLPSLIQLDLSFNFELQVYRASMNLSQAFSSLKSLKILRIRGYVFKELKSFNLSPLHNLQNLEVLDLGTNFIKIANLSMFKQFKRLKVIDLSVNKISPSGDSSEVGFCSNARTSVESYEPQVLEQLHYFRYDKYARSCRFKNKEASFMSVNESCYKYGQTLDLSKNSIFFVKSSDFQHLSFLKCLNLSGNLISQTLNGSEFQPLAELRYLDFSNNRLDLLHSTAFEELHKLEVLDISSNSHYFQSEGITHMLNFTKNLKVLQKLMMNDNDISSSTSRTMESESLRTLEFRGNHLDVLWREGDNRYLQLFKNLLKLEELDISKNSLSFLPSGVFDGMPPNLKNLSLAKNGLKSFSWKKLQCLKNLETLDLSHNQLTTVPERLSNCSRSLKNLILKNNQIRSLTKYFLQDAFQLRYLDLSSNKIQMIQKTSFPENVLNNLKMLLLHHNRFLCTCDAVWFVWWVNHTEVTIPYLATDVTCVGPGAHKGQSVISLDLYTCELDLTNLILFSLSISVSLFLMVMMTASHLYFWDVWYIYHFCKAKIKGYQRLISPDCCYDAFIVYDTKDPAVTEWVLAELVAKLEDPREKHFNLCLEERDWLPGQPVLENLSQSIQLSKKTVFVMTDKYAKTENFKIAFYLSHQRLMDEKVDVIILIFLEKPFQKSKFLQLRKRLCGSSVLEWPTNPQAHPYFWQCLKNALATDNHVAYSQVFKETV
Experimental: (§1) Toll-Like Receptor (TLR) Ligand Screening: In-vitro Activity of the PNPi, Guanosine and Inosine on Seven Different Human TLRs (TLR2, 3, 4, 5, 7, 8 and 9) as a Potential Agonist.
(§2) Method: TLR stimulation is tested by assessing NF-KB activation in HEK293 cells expressing a given TLR. The Secreted Embryonic Alkaline Phosphatase (SEAP) reporter is under the control of a promoter inducible by the transcription factor NF-κB.
(§3) This reporter gene allows the monitoring of signaling through the TLR, based on the activation of NF-κB. The compounds are evaluated at one concentration and compared to control ligands. This step is performed in triplicate.

human TLR2 = molecular target: T2, human TLR2 (Homo sapiens, UniProt O60603); assay: TLR ligand screening: NF-κB SEAP reporter in HEK293 cells expressing TLR2; details: one concentration: Guanosine 100 uM, NTR001 10 uM, Inosine 100 uM; HEK293; triplicate; FIG. 2
T2 construct: expressed in transfected cells; host or cells: HEK293
Experimental: as §1, §2, §3

human TLR5 = molecular target: T3, human TLR5 (Homo sapiens, UniProt O60602); assay: TLR ligand screening: NF-κB SEAP reporter in HEK293 cells expressing TLR5; details: one concentration: NTR001 10 uM, Inosine 100 uM, triplicate, FIG. 2
T3 construct: expressed in transfected cells; host or cells: HEK293
Experimental: as §1, §2, §3

human TLR4 = molecular target: T4, human TLR4 (Homo sapiens, UniProt O00206); assay: TLR ligand screening: NF-κB SEAP reporter in HEK293 cells expressing TLR4; details: one concentration: Guanosine 100 uM, NTR001 10 uM, Inosine 100 uM; HEK293; triplicate; FIG. 2
T4 construct: expressed in transfected cells; host or cells: HEK293
Experimental: as §1, §2, §3

human TLR8 = molecular target: T5, human TLR8 (Homo sapiens, UniProt Q9NR97); assay: TLR ligand screening: NF-κB SEAP reporter in HEK293 cells expressing TLR8; details: one concentration: NTR001 10 uM, Inosine 100 uM, triplicate, FIG. 2
T5 construct: expressed in transfected cells; host or cells: HEK293
T5 sequence (Q9NR97 27-1041): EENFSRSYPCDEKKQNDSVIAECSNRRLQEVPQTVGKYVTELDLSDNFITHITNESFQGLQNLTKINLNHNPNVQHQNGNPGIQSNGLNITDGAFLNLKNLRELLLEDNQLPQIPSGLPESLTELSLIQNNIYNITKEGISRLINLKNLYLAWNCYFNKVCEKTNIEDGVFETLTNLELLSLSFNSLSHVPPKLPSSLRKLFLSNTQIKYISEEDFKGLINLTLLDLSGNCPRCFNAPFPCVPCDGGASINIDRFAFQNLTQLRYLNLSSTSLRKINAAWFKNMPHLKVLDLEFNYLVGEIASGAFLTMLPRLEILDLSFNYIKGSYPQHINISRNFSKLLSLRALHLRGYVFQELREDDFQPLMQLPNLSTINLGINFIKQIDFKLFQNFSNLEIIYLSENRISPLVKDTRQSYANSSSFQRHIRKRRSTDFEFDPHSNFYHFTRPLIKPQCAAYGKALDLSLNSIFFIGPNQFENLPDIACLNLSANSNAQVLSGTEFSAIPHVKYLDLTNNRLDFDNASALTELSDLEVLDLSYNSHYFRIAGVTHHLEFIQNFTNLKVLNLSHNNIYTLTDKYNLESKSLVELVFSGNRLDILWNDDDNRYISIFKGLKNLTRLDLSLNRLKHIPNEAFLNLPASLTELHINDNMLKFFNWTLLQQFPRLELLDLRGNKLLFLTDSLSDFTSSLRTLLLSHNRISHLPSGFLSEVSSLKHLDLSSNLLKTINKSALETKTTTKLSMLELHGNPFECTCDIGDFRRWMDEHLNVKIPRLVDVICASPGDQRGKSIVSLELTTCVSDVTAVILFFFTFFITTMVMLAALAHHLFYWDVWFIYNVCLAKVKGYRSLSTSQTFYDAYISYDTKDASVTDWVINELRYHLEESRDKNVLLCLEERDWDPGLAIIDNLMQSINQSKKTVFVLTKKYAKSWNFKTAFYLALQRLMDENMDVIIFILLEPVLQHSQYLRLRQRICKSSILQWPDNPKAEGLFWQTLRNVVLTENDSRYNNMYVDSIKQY
Experimental: as §1, §2, §3

T2 sequence (O60603 21-784): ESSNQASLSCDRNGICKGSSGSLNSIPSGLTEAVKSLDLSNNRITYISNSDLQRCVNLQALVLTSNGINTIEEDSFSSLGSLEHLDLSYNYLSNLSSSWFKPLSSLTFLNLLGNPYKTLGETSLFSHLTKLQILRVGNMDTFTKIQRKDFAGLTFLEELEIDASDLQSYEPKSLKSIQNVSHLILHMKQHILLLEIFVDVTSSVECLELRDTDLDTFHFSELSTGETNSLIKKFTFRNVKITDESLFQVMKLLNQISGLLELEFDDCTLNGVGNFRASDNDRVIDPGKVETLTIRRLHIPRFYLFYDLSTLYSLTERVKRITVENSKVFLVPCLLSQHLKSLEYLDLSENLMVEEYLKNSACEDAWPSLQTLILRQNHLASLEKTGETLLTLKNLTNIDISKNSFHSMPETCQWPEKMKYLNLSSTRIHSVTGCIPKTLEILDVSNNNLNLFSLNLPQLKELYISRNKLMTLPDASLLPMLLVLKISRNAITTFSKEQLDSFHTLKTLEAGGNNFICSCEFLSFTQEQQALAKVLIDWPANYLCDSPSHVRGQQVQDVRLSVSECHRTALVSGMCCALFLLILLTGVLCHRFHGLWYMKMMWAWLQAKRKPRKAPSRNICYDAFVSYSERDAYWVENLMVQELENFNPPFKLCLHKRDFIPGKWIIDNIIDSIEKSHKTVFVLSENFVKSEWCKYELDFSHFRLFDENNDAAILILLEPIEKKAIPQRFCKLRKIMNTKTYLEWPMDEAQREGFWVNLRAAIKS
T4 sequence (O00206 24-839): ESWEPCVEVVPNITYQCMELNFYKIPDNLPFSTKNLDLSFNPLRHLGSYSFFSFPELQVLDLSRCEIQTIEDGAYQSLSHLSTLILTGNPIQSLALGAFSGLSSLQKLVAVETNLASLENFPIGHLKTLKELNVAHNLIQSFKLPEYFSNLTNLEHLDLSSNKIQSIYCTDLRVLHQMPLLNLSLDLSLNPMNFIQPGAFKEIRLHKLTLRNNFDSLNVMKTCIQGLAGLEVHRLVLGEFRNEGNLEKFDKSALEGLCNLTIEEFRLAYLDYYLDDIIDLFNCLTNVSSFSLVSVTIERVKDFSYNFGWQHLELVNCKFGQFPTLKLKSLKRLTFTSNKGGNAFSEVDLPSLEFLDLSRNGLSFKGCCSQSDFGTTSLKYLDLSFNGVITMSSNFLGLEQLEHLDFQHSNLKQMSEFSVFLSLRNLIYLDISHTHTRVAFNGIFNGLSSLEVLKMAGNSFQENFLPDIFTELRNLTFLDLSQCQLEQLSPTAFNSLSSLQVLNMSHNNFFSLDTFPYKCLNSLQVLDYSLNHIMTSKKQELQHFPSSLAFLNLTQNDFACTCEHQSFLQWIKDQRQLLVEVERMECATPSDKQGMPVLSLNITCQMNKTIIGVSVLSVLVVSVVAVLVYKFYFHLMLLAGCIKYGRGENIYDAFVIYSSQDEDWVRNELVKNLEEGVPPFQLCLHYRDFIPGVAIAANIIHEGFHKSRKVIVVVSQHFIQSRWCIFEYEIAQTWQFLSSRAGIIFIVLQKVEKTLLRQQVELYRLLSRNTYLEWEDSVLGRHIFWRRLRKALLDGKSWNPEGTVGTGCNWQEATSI
T4 sequence (Q9Y6Y9 17-160 partner limits assumed): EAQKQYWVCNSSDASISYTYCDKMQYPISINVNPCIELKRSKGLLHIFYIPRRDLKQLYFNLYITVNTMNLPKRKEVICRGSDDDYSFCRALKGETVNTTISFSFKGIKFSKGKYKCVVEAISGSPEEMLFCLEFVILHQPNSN
T3 sequence (O60602 21-858): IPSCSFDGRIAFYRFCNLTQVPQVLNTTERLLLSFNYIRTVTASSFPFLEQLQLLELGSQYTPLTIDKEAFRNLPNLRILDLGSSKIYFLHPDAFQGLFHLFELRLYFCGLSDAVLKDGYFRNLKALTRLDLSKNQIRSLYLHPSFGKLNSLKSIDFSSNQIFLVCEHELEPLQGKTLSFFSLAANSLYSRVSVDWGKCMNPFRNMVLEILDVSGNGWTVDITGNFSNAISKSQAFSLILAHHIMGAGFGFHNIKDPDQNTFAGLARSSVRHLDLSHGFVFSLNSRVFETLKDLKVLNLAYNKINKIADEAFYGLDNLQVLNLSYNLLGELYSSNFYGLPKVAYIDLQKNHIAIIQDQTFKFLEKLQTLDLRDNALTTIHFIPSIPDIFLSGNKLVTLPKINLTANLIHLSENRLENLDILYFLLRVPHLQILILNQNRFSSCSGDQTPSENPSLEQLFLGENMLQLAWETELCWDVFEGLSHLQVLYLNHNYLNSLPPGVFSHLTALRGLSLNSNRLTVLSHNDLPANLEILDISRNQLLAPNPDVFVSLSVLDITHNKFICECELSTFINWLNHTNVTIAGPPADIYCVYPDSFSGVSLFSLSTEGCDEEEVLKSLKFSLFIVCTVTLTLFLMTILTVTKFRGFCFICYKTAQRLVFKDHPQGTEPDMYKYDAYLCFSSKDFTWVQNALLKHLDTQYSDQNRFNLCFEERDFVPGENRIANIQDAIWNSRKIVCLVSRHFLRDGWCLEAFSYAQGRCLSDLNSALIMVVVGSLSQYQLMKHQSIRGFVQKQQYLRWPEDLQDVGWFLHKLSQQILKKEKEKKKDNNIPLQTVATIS

OC[C@H]1O[C@@H](n2cnc3c(O)ncnc32)[C@H](O)[C@@H]1O [Inosine, inosine]
do not exhibit a stimulatory effect: stimulatory effect on human TLR7 (NF-κB activation) (human TLR7) | stimulatory effect on human TLR2 (NF-κB activation) (human TLR2) | stimulatory effect on human TLR5 (NF-κB activation) (human TLR5) | stimulatory effect on human TLR4 (NF-κB activation) (human TLR4) | stimulatory effect on human TLR8 (NF-κB activation) (human TLR8)

O=c1[nH]cnc2c([C@@H]3N[C@H](CO)[C@@H](O)[C@H]3O)c[nH]c12 [NTR001, 7-[(2S,3S,4R,5R)-3,4-dihydroxy-5-(hydroxymethyl)-2-pyrrolidinyl]-1,5-dihyro-4-H-pyrrolo-[3,2-d]pyrimidin-4-one]
do not exhibit a stimulatory effect: stimulatory effect on human TLR7 (NF-κB activation) (human TLR7) | stimulatory effect on human TLR2 (NF-κB activation) (human TLR2) | stimulatory effect on human TLR5 (NF-κB activation) (human TLR5) | stimulatory effect on human TLR4 (NF-κB activation) (human TLR4) | stimulatory effect on human TLR8 (NF-κB activation) (human TLR8)
